Among the test systems are 786-0 renal; OVCAR-4 ovarian; OVCAR-5 ovarian; RPMI-8226 leukemia; SF-268 CNS; SF-295 CNS; SK-MEL-5 melanoma; T-47D breast; MOLT-4 leukemia; NCI-H226 lung.
What all share (experiment): NCI anticancer screen, dose series, 48 h

Where “and” joins values, the source holds several entries; their conditions need not be identical. Equal values may be shown once.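 Five compound concentrations were applied to cells in 96-well plates for 48 hours; endpoints were derived by simple linear interpolation of the resulting dose-response curve. GI50 = concentration required for 50% inhibition of growth. TGI marks complete inhibition of growth.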

Turning to `Nc1nc(-c2cccs2)cs1`, the TGI in the test on 786-0 renal, with OVCAR-4 ovarian, with OVCAR-5 ovarian, in the test with RPMI-8226 leukemia, in the test on SF-268 CNS and in the test on SF-295 CNS was above 100 µM throughout. In addition, the TGI in the test with SK-MEL-5 melanoma and in the test with T-47D breast was above 100 µM in each case.

In the case of `c1ccc2c3c(ccc2c1)-c1c(ccc2c(NCCCCN4CCCCC4)cccc12)C3`, the GI50 is 1.76 µM in the test on 786-0 renal; 2.09 µM in the test on MOLT-4 leukemia; 2.81 µM in the test on OVCAR-4 ovarian; 1.31 µM in the test on OVCAR-5 ovarian; 1.64 µM in the test with RPMI-8226 leukemia; 1.07 µM in the test on SF-268 CNS. Also, the GI50 with SF-295 CNS is 1.78 µM; in the test with SK-MEL-5 melanoma it was 11 µM; with T-47D breast, 4.27 µM. In addition, the TGI in the test with 786-0 renal was 3.14 µM; with MOLT-4 leukemia it was above 100 µM; with OVCAR-4 ovarian, above 31 µM; with OVCAR-5 ovarian it was 2.88 µM; in the test on RPMI-8226 leukemia, 3.6 µM; in the test on SF-268 CNS, 2.25 µM. The TGI in the test with SF-295 CNS was 3.35 µM; in the test on SK-MEL-5 melanoma, 26.7 µM; with T-47D breast it was above 100 µM.

Consider `Cc1ccc(NC(=O)c2cc3ccccc3cc2O)c(C)c1.Cc1ccc(NC(=O)c2cc3ccccc3cc2[O-])c(C)c1.[Ni+2]`, for which the GI50 was 3.77 µM in the test on 786-0 renal; 3.49 µM in the test with NCI-H226 lung; 3.88 µM with OVCAR-4 ovarian; 4.25 µM in the test with OVCAR-5 ovarian; 1.94 µM in the test on RPMI-8226 leukemia; 3.52 µM in the test with SF-268 CNS. Besides, the GI50 in the test on SF-295 CNS is 3.89 µM; with SK-MEL-5 melanoma it was 2.57 µM; in the test with T-47D breast, 3.08 µM. Further, the TGI in the test with 786-0 renal was determined as 14.6 µM; in the test on NCI-H226 lung, 8.37 µM; in the test on OVCAR-4 ovarian, 25.4 µM; with OVCAR-5 ovarian, 17.9 µM; in the test with RPMI-8226 leukemia it was 6.1 µM; in the test with SF-268 CNS, 17.2 µM. Besides, the TGI in the test on SF-295 CNS was 14.3 µM; in the test on SK-MEL-5 melanoma, 10.2 µM; in the test with T-47D breast, 14.8 µM.

For `C/C=C/C1=CN2C(=O)c3cc(OC4OC(C)C(NC)C(C)(O)C4O)c(C)c(O)c3N=C[C@@H]2C1` (some centres not stated), the GI50 in the test with 786-0 renal was 0.065 µM; with MOLT-4 leukemia, 0.0413 µM and < 0.01 µM; with NCI-H226 lung, 0.124 µM; with RPMI-8226 leukemia, 0.0457 µM and < 0.01 µM; in the test with SF-268 CNS, 0.0342 µM and < 0.01 µM; in the test with SF-295 CNS, below 0.01 µM. Besides, the TGI is 20.7 µM in the test on OVCAR-4 ovarian, 2.92 µM with OVCAR-5 ovarian, above 100 µM in the test with SF-295 CNS and 15.3 µM in the test on T-47D breast.

Take `Oc1c(CN2CCN(c3ccccc3F)CC2)cc(Br)c2cccnc12`: the GI50 in the test on 786-0 renal was 2.42 µM; in the test on MOLT-4 leukemia it was 0.743 µM; with NCI-H226 lung, 1.17 µM; with OVCAR-5 ovarian, 5.36 µM; with RPMI-8226 leukemia it was 0.791 µM; with SF-268 CNS, 0.858 µM. The GI50 in the test with SF-295 CNS was 2.92 µM; with SK-MEL-5 melanoma, 0.616 µM; in the test with T-47D breast it was 0.565 µM. The TGI was 12.6 µM in the test on 786-0 renal; 5.92 µM in the test on MOLT-4 leukemia; 9.5 µM in the test on NCI-H226 lung; 49 µM in the test with OVCAR-5 ovarian; 15.6 µM in the test on RPMI-8226 leukemia; above 100 µM in the test with SF-268 CNS. The TGI in the test with SF-295 CNS was 42.1 µM; in the test with SK-MEL-5 melanoma it was above 21.4 µM; in the test on T-47D breast, 60.5 µM.

For the molecule `Cc1ccc(C2=NN(c3ccc(S(N)(=O)=O)cc3)C(c3cn(-c4ccccc4)nc3-c3ccccc3)C2)cc1` (configuration not stated), the GI50 in the test with 786-0 renal is 4.69 µM; with MOLT-4 leukemia, 3.72 µM; in the test with NCI-H226 lung, 30.7 µM; in the test on OVCAR-5 ovarian, 70.4 µM; in the test on RPMI-8226 leukemia, 6.35 µM; in the test with SF-268 CNS, 25.7 µM. The GI50 is 73.3 µM in the test with SF-295 CNS, 16.6 µM in the test with SK-MEL-5 melanoma and 9.13 µM in the test with T-47D breast. Moreover, the TGI in the test with 786-0 renal, with MOLT-4 leukemia, in the test with NCI-H226 lung, in the test with OVCAR-5 ovarian, in the test on RPMI-8226 leukemia and with SF-268 CNS was above 100 µM throughout. In addition, the TGI in the test on SF-295 CNS, in the test with SK-MEL-5 melanoma and in the test on T-47D breast was above 100 µM each time.

Turning to `CCCCCCNCCCNc1c2ccccc2nc2cccc([N+](=O)[O-])c12`, the GI50 in the test with 786-0 renal was 0.0239 µM; in the test on NCI-H226 lung, 0.0228 µM; in the test with OVCAR-4 ovarian it was 0.0115 µM; with OVCAR-5 ovarian, 0.0207 µM; with SF-268 CNS, 0.038 µM; in the test with SF-295 CNS it was 0.0263 µM. For the same molecule, the GI50 with T-47D breast is 0.0503 µM. Also, the TGI in the test with 786-0 renal is 0.0416 µM and 0.193 µM; with MOLT-4 leukemia it was 0.0854 µM and 0.0641 µM; in the test with NCI-H226 lung, 0.274 µM and 0.148 µM; in the test on OVCAR-4 ovarian it was 0.0419 µM and 0.0486 µM; with OVCAR-5 ovarian it was 0.194 µM and 0.151 µM; with SF-268 CNS, 0.0522 µM and 0.405 µM. In addition, the TGI in the test on SF-295 CNS is 0.059 µM and 0.422 µM; with SK-MEL-5 melanoma it was 0.0258 µM and 0.0243 µM; with T-47D breast, 0.288 µM and 0.457 µM.

As to `N#Cc1nn(-c2cc(=O)[nH]c3ccc(Br)cc23)c(N)c1C#N`, the GI50 in the test on 786-0 renal was above 100 µM; with MOLT-4 leukemia, above 100 µM; with NCI-H226 lung it was above 100 µM; in the test with OVCAR-5 ovarian, above 100 µM; in the test with RPMI-8226 leukemia, above 100 µM; in the test with SF-268 CNS, 67 µM. For the same molecule, the results for the GI50 in the test with SF-295 CNS, in the test on SK-MEL-5 melanoma and in the test on T-47D breast were above 100 µM, above 100 µM and 6.46 µM, respectively. Besides, the TGI with 786-0 renal, with MOLT-4 leukemia, in the test with NCI-H226 lung, in the test with OVCAR-5 ovarian, in the test with RPMI-8226 leukemia and with SF-268 CNS was above 100 µM each time. Further, the TGI in the test on SF-295 CNS, with SK-MEL-5 melanoma and with T-47D breast was above 100 µM throughout.

Regarding `CC(CN)[C@@H]1CC[C@]2(CO)CC[C@]3(C)[C@H](CC[C@@H]4[C@@]5(C)CCC(N)C(C)(C)[C@@H]5CC[C@]43C)[C@@H]12` (some centres not stated), the GI50 is 1.58 µM with 786-0 renal; 1.95 µM in the test on NCI-H226 lung; 1.61 µM in the test with OVCAR-4 ovarian; 1.85 µM with OVCAR-5 ovarian; 2.06 µM in the test on RPMI-8226 leukemia; 1.65 µM in the test with SF-268 CNS. The values for the GI50 in the test with SF-295 CNS, in the test on SK-MEL-5 melanoma and in the test on T-47D breast were 1.74 µM, 1.67 µM and 1.84 µM, respectively. Moreover, the TGI amounted to 3.38 µM with 786-0 renal; 4.04 µM in the test with NCI-H226 lung; 3.16 µM in the test on OVCAR-4 ovarian; 3.58 µM with OVCAR-5 ovarian; 4.58 µM with RPMI-8226 leukemia; 3.29 µM with SF-268 CNS. Further, the values for the TGI in the test with SF-295 CNS, with SK-MEL-5 melanoma and with T-47D breast were 3.41 µM, 3.08 µM and 3.99 µM, respectively.

(Values after PubChem BioAssay (NCI).)
